Assay results: PubChem BioAssay (NCI)
Where “and” joins values, the source holds several entries; their conditions need not be identical. Equal values may be shown once.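 Where inhibition never reached the appropriate level, the endpoint shown equals the highest concentration tested. Otherwise, values were interpolated linearly from a five-concentration, 48-hour dose response in 96-well plates. GI50 marks 50% less growth. TGI denotes the concentration required for complete inhibition of growth.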

These compounds were tested on OVCAR-8 ovarian (assay: NCI-60 cell line screen, 48 h).
With `Fc1ccc(Nc2cc(-n3nnc4ccccc43)nc3ccccc23)cc1` the GI50 was 22.2 µM and the TGI was > 79 µM.
In the case of `NC(=O)C(=CNc1nc(-c2ccc(Cl)c(Cl)c2)cs1)C(N)=O`, the GI50 is reported as 80.7 µM and the TGI is reported as > 100 µM.
For `NC(N)=N/N=C/c1cc(Cl)cc(Cl)c1O`, the TGI was > 100 µM.
With `O=C(Nc1cccc(Cl)c1)c1cc2ccccc2cc1O` the GI50 was 2.94 µM and 3.39 µM and the TGI was > 100 µM.
For `OCCCCC#Cc1ccccc1C#Cc1cccc(O)c1`, the GI50 was 18.2 µM and the TGI was 36.9 µM.
With `N#CC1Nc2ccccc2[C@@H](O)C1O` (stereo not given in full) the TGI was > 100 µM.
With `CC(C)c1ccccc1S(=O)c1ccccc1C(C)(C)O` (stereo not given) the TGI was > 100 µM.
`O=C(N/N=C\c1cc(Br)ccc1O)c1ccncc1` was tested, and the GI50 was 1.38 µM and the TGI was > 100 µM.
For `COc1ccccc1/C=C/c1cnccn1`, the TGI was > 10 µM.
In the case of `Cc1c(C2Nc3ccccc3C2C)[nH]c2ccccc12` (stereo not given), the GI50 is reported as 9.1 µM and the TGI is reported as 29.2 µM.
Compound `CCN(CC)CC(C)(C)C(=O)/C=C/c1ccc(Cl)c(Cl)c1` has a GI50 of 1.88 µM and a TGI of 3.91 µM.
In the case of `CCN(CC)CCNCC(=O)Oc1ccc(/C=C/C(=O)CC(=O)/C=C/c2ccc(OC(=O)CNCCN(CC)CC)c(OC)c2)cc1OC`, the GI50 is reported as 3.69 µM and the TGI is reported as 15 µM.

What follows are compounds tested on MDA-MB-231 breast (assay: NCI-60 cell line screen, 48 h).
With `Fc1ccc(Nc2cc(-n3nnc4ccccc43)nc3ccccc23)cc1` the GI50 was 8.44 µM and the TGI was > 49.2 µM.
`NC(=O)C(=CNc1nc(-c2ccc(Cl)c(Cl)c2)cs1)C(N)=O` was tested, and the GI50 was 60.8 µM and the TGI was > 100 µM.
With `NC(N)=N/N=C/c1cc(Cl)cc(Cl)c1O` the TGI was > 100 µM.
With `O=C(Nc1cccc(Cl)c1)c1cc2ccccc2cc1O` the GI50 was 4.65 µM and 2.37 µM and the TGI was > 100 µM and 15.4 µM.
`OCCCCC#Cc1ccccc1C#Cc1cccc(O)c1` was tested, and the GI50 was 12.8 µM and the TGI was 26.7 µM.
For `N#CC1Nc2ccccc2[C@@H](O)C1O` (stereo not given in full), the TGI was > 100 µM.
For `CC(C)c1ccccc1S(=O)c1ccccc1C(C)(C)O` (stereo not given), the TGI was > 100 µM.
`O=C(N/N=C\c1cc(Br)ccc1O)c1ccncc1` was tested, and the GI50 was 5.88 µM and the TGI was > 100 µM.
With `COc1ccccc1/C=C/c1cnccn1` the TGI was > 10 µM.
Compound `Cc1c(C2Nc3ccccc3C2C)[nH]c2ccccc12` (stereo not given) has a GI50 of 5.37 µM and a TGI of 21.4 µM.
For `CCN(CC)CC(C)(C)C(=O)/C=C/c1ccc(Cl)c(Cl)c1`, the GI50 was 2.06 µM and the TGI was 4.26 µM.
`CCN(CC)CCNCC(=O)Oc1ccc(/C=C/C(=O)CC(=O)/C=C/c2ccc(OC(=O)CNCCN(CC)CC)c(OC)c2)cc1OC` was tested, and the GI50 was 4.94 µM and the TGI was 29.3 µM.

Each compound was assayed on HCT-15 colon (assay: NCI-60 cell line screen, 48 h).
In the case of `Fc1ccc(Nc2cc(-n3nnc4ccccc43)nc3ccccc23)cc1`, the GI50 is reported as > 100 µM and the TGI is reported as > 100 µM.
With `NC(=O)C(=CNc1nc(-c2ccc(Cl)c(Cl)c2)cs1)C(N)=O` the GI50 was 84.7 µM and the TGI was > 100 µM.
`NC(N)=N/N=C/c1cc(Cl)cc(Cl)c1O` showed a TGI of 58.9 µM.
For `O=C(Nc1cccc(Cl)c1)c1cc2ccccc2cc1O`, the GI50 was 2.38 µM and 2.36 µM and the TGI was > 100 µM.
`OCCCCC#Cc1ccccc1C#Cc1cccc(O)c1` showed a GI50 of 13.6 µM and a TGI of 27 µM.
In the case of `N#CC1Nc2ccccc2[C@@H](O)C1O` (stereo not given in full), the TGI is reported as > 100 µM.
`CC(C)c1ccccc1S(=O)c1ccccc1C(C)(C)O` (stereo not given) was tested, and the TGI was > 100 µM.
`O=C(N/N=C\c1cc(Br)ccc1O)c1ccncc1` was tested, and the GI50 was 0.563 µM and the TGI was > 100 µM.
With `COc1ccccc1/C=C/c1cnccn1` the TGI was > 10 µM.
`Cc1c(C2Nc3ccccc3C2C)[nH]c2ccccc12` (stereo not given) gave a GI50 of 0.297 µM and a TGI of 25.9 µM.
Compound `CCN(CC)CC(C)(C)C(=O)/C=C/c1ccc(Cl)c(Cl)c1` has a GI50 of 1.42 µM and a TGI of 2.92 µM.
`CCN(CC)CCNCC(=O)Oc1ccc(/C=C/C(=O)CC(=O)/C=C/c2ccc(OC(=O)CNCCN(CC)CC)c(OC)c2)cc1OC` was tested, and the GI50 was 3.68 µM and the TGI was 15.3 µM.

These compounds were tested on MALME-3M melanoma (assay: NCI-60 cell line screen, 48 h).
With `Fc1ccc(Nc2cc(-n3nnc4ccccc43)nc3ccccc23)cc1` the GI50 was 23.1 µM and the TGI was > 70.6 µM.
In the case of `NC(=O)C(=CNc1nc(-c2ccc(Cl)c(Cl)c2)cs1)C(N)=O`, the GI50 is reported as > 100 µM and the TGI is reported as > 100 µM.
`NC(N)=N/N=C/c1cc(Cl)cc(Cl)c1O` was tested, and the TGI was > 100 µM.
Compound `O=C(Nc1cccc(Cl)c1)c1cc2ccccc2cc1O` has a GI50 of 0.71 µM and a TGI of 21.9 µM.
`OCCCCC#Cc1ccccc1C#Cc1cccc(O)c1` was tested, and the GI50 was 18.9 µM and the TGI was 40.8 µM.
In the case of `N#CC1Nc2ccccc2[C@@H](O)C1O` (stereo not given in full), the TGI is reported as > 100 µM.
In the case of `CC(C)c1ccccc1S(=O)c1ccccc1C(C)(C)O` (stereo not given), the TGI is reported as > 100 µM.
With `O=C(N/N=C\c1cc(Br)ccc1O)c1ccncc1` the GI50 was 5.76 µM and the TGI was 78.5 µM.
`COc1ccccc1/C=C/c1cnccn1` was tested, and the TGI was > 10 µM.
`Cc1c(C2Nc3ccccc3C2C)[nH]c2ccccc12` (stereo not given) gave a GI50 of 10.6 µM and a TGI of 24.8 µM.
Compound `CCN(CC)CC(C)(C)C(=O)/C=C/c1ccc(Cl)c(Cl)c1` has a GI50 of 1.8 µM and a TGI of 3.61 µM.
For `CCN(CC)CCNCC(=O)Oc1ccc(/C=C/C(=O)CC(=O)/C=C/c2ccc(OC(=O)CNCCN(CC)CC)c(OC)c2)cc1OC`, the GI50 was 2.57 µM and the TGI was 7.65 µM.

The compounds below were run on SF-539 CNS (assay: NCI-60 cell line screen, 48 h).
With `Fc1ccc(Nc2cc(-n3nnc4ccccc43)nc3ccccc23)cc1` the GI50 was 24.6 µM and the TGI was > 55.6 µM.
With `NC(=O)C(=CNc1nc(-c2ccc(Cl)c(Cl)c2)cs1)C(N)=O` the GI50 was 46.4 µM and the TGI was > 100 µM.
For `NC(N)=N/N=C/c1cc(Cl)cc(Cl)c1O`, the TGI was > 100 µM.
With `O=C(Nc1cccc(Cl)c1)c1cc2ccccc2cc1O` the GI50 was 3.17 µM and 0.577 µM and the TGI was 28.8 µM and > 100 µM.
`OCCCCC#Cc1ccccc1C#Cc1cccc(O)c1` gave a GI50 of 17.5 µM and a TGI of 35.8 µM.
In the case of `N#CC1Nc2ccccc2[C@@H](O)C1O` (stereo not given in full), the TGI is reported as > 100 µM.
`CC(C)c1ccccc1S(=O)c1ccccc1C(C)(C)O` (stereo not given) was tested, and the TGI was > 100 µM.
With `O=C(N/N=C\c1cc(Br)ccc1O)c1ccncc1` the GI50 was 2.93 µM and the TGI was 48.7 µM.
In the case of `COc1ccccc1/C=C/c1cnccn1`, the TGI is reported as > 10 µM.
For `Cc1c(C2Nc3ccccc3C2C)[nH]c2ccccc12` (stereo not given), the GI50 was 8.72 µM and the TGI was 25.1 µM.
In the case of `CCN(CC)CC(C)(C)C(=O)/C=C/c1ccc(Cl)c(Cl)c1`, the GI50 is reported as 1.85 µM and the TGI is reported as 3.54 µM.
For `CCN(CC)CCNCC(=O)Oc1ccc(/C=C/C(=O)CC(=O)/C=C/c2ccc(OC(=O)CNCCN(CC)CC)c(OC)c2)cc1OC`, the GI50 was 2.59 µM and the TGI was 6.74 µM.
